Where “and” joins values, the source holds several entries; their conditions need not be identical. Equal values may be shown once.
Columns and labels:
Type in all cases: in vivo
[1] = system: MEOPA (Melochia parviflora); test: Postemergence field trial, weed control in range and pasture; settings: for Obs, observed percent weed control: 14 DAA, Table 1; for % Visual Injury, Obs: 63 DAA
Experimental: (§1) Evaluation of Postemergence Herbicidal Activity of Mixtures in Cereal crops and Range and Pasture.
(§2) Field trials were conducted in cereal crops (winter wheat (TRZAW), spring wheat (TRZAS) and spring barley (HORVU) in Canada, France, Germany, Spain, Denmark, United Kingdom and Belgium, and pasture trials were conducted in Colombia using standard herbicide small plot research methodology. Plot size was typical for small plot research, varying from 1.4 to 2 meters (m) wide by 3 to 10 m long. There were 2-4 replicates per treatment. The soil type ranged from coarse, to medium or heavy in terms of soil texture. Cereal crops were planted, grown and maintained as commercial production fields. Perennial pastures were natural plant and weed infestations as per normal local cultural practices. The cereal and pasture crops were grown using normal cultural practices for fertilization and maintenance to ensure good growth of the crop/pastures and the weeds.
(§3) Treatments were applied by backpack or bicycle sprayers using either compressed air, nitrogen, or carbon dioxide (CO2), at spray pressures from 200 to 300 Kpa. Spray tips were typically Flat Fan Teejet nozzles, such as TJ8003. Spray volumes varied from 200 to 400 liters per hectare (L/ha). MEOPA plant size at application varied from 70 to 80 centimeters (cm) tall active growth at flowering stage. All cereal weeds tested varied from 2 leaf to 8 leaf and often branched or tittered.
(§4) For each treatment, the appropriate formulated product amount to treat the plot area, to achieve the desired application rate, based on unit area of application (hectare), was calculated, measured, and mixed in water prior to applying with the backpack or bicycle sprayer. Treatments were rated as compared to the untreated control plots. The commercial fluroxypyr formulations used were Starane® Ultra (333 gr ae/liter) or Starane® 2 (200 gr ae/liter). Compound I was formulated as a 20% weight acid equivalent wettable granule (WG) or as a 7.5 gr ae/liter EC of the corresponding methyl ester. All Compound (I) treatments were tank mixed with an adjuvant. Compound (I) treatments in the cereal trials contained the safener cloquintocet-mexyl.
(§5) Colby's equation was used to determine the herbicidal effects expected from the mixtures (Colby, S. R. Calculation of the synergistic and antagonistic response of herbicide combinations. Weeds 1967, 15, 20-22.).
(§6) The following equation was used to calculate the expected activity of mixtures containing two active ingredients, A and B:
(§7) A=observed efficacy of active ingredient A at the same concentration as used in the mixture.
(§8) B=observed efficacy of active ingredient B at the same concentration as used in the mixture.

[2] = system: CASOB (Cassia obtusifolia); test: as above; settings: 29-42 DAA
Experimental: as §1, §2, §3, §4, §5, §6, §7, §8

[3] = system: MATCH (Matricaria chamomilla); test: Postemergence field trial, weed control in cereal crops
Experimental: as §1, §2, §3, §4, §5, §6, §7, §8

[4] = system: POLAV (Polygonum aviculare); test: as above; settings: 13-27 DAA
Experimental: as §1, §2, §3, §4, §5, §6, §7, §8

[5] = system: VIOAR (Viola arvensis); test: as above; settings: 14 DAA
Experimental: as §1, §2, §3, §4, §5, §6, §7, §8

[6] = system: VERHE (Veronica hederifolia); test: as above; settings: 49 DAA
Experimental: as §1, §2, §3, §4, §5, §6, §7, §8

[7] = system: CHEAL (Chenopodium album); test: as above; settings: 14 DAA
Experimental: as §1, §2, §3, §4, §5, §6, §7, §8

[8] = system: CIRAR (Cirsium arvense); test: as above; settings: 14 DAA
Experimental: as §1, §2, §3, §4, §5, §6, §7, §8

[9] = system: PAPRH (Papaver rhoeas); test: as above; settings: 28 DAA
Experimental: as §1, §2, §3, §4, §5, §6, §7, §8

[10] = system: AMARE (Amaranthus retroflexus); test: as above; settings: 56 DAA
Experimental: as §1, §2, §3, §4, §5, §6, §7, §8

[11] = system: STEME (Stellaria media); test: as above
Experimental: as §1, §2, §3, §4, §5, §6, §7, §8

[12] = system: SINAR (Sinapis arvensis); test: as above; settings: 58 DAA
Experimental: as §1, §2, §3, §4, §5, §6, §7, §8

[13] = system: LAMPU (Lamium purpureum); test: as above; settings: 28 DAA
Experimental: as §1, §2, §3, §4, §5, §6, §7, §8

[14] = system: STAAN (Stachys annua); test: as above; settings: 14 DAA
Experimental: as §1, §2, §3, §4, §5, §6, §7, §8

[15] = system: VEROF (Veronica officinalis); test: as above; settings: 28 DAA
Experimental: as §1, §2, §3, §4, §5, §6, §7, §8

[16] = fluroxypyr MHE 120 g ae/ha alone
[17] = fluroxypyr MHE 77 g ae/ha alone
[18] = fluroxypyr MHE 140 g ae/ha alone
[19] = fluroxypyr MHE 150 g ae/ha alone

## CCCCCCC(C)OC(=O)COc1nc(F)c(Cl)c(N)c1Cl (centres unmarked) [Fluroxypyr (MHE), Fluroxypyr Methylheptyl Ester, reference compound]
[1]; [16]
  Obs, observed percent weed control: 3.5%
  % Visual Injury, Obs: 3% and 8%
[2]; [16]
  % Visual Injury, Obs: 18%
[3]; 27 DAA, fluroxypyr MHE 200 g ae/ha alone
  % Visual Injury, Obs: 47%
[3]; 54 DAA, fluroxypyr MHE 150 g ae/ha alone
  % Visual Injury, Obs: 0%
[4]; [17]
  % Visual Injury, Obs: 25%
[4]; fluroxypyr MHE 80 g ae/ha alone
  % Visual Injury, Obs: 61%
[5]; [18]
  % Visual Injury, Obs: 50%
[6]; fluroxypyr MHE 110 g ae/ha alone
  % Visual Injury, Obs: 42%
[7]; [19]
  % Visual Injury, Obs: 10%
[8]; [19]
  % Visual Injury, Obs: 10%
[9]; [18]
  % Visual Injury, Obs: 5%
[10]; [17]
  % Visual Injury, Obs: 20%
[11]; 28 DAA, fluroxypyr MHE 200 g ae/ha alone
  % Visual Injury, Obs: 27%
[11]; 30 DAA, fluroxypyr MHE 80 g ae/ha alone
  % Visual Injury, Obs: 81%
[11]; 76 DAA, fluroxypyr MHE 110 g ae/ha alone, Table 5
  % Visual Injury, Obs: 67%
[11]; 76 DAA, fluroxypyr MHE 140 g ae/ha alone, Table 3
  % Visual Injury, Obs: 77%
[12]; [18]
  % Visual Injury, Obs: 13%
[13]; fluroxypyr MHE 50 g ae/ha alone
  % Visual Injury, Obs: 4%
[14]; [19]
  % Visual Injury, Obs: 30%
[15]; [18]
  % Visual Injury, Obs: 0%

## COC(=O)c1nc(-c2ccc(Cl)c(OC)c2F)cc(N)c1Cl [XDE-729 (Methyl Ester), halauxifen-methyl]
[1]; XDE-729 methyl ester 17.5 g ae/ha alone
  Obs, observed percent weed control: 48.5%
[1]; XDE-729 methyl ester 35 g ae/ha alone
  Obs, observed percent weed control: 63.1%
[1]; XDE-729 Me 18 g ae/ha alone
  % Visual Injury, Obs: 25%
[1]; XDE-729 Me 35 g ae/ha alone
  % Visual Injury, Obs: 42%
[2]; XDE-729 Me 18 g ae/ha alone
  % Visual Injury, Obs: 6%
[2]; XDE-729 Me 35 g ae/ha alone
  % Visual Injury, Obs: 16%
[3]; 54 DAA, XDE-729 Me 6 g ae/ha alone
  % Visual Injury, Obs: 0%
[4]; XDE-729 Me 2 g ae/ha alone
  % Visual Injury, Obs: 0%
[4]; XDE-729 Me 5 g ae/ha alone
  % Visual Injury, Obs: 53%
[5]; XDE-729 Me 6 g ae/ha alone
  % Visual Injury, Obs: 10%
[6]; XDE-729 Me 6 g ae/ha alone
  % Visual Injury, Obs: 23%
[9]; XDE-729 Me 6 g ae/ha alone
  % Visual Injury, Obs: 54%
[10]; XDE-729 Me 5 g ae/ha alone
  % Visual Injury, Obs: 50%
[11]; 30 DAA, XDE-729 Me 2 g ae/ha alone
  % Visual Injury, Obs: 58%
[11]; 76 DAA, XDE-729 Me 4.5 g ae/ha alone, Table 3
  % Visual Injury, Obs: 19%
[11]; 76 DAA, XDE-729 Me 4.5 g ae/ha alone, Table 5
  % Visual Injury, Obs: 22%
[11]; 76 DAA, XDE-729 Me 6 g ae/ha alone, Table 3
  % Visual Injury, Obs: 29%
[11]; 76 DAA, XDE-729 Me 6 g ae/ha alone, Table 5
  % Visual Injury, Obs: 38%
[12]; XDE-729 Me 6 g ae/ha alone
  % Visual Injury, Obs: 0%
[13]; XDE-729 Me 2 g ae/ha alone
  % Visual Injury, Obs: 73%
[15]; XDE-729 Me 6 g ae/ha alone
  % Visual Injury, Obs: 0%

## COc1c(Cl)ccc(-c2cc(N)c(Cl)c(C(=O)O)n2)c1F [XDE-729 (TEA)]
[3]; 27 DAA, XDE-729 TEA 35 g ae/ha alone
  % Visual Injury, Obs: 8%
[7]; XDE-729 TEA 8.8 g ae/ha alone
  % Visual Injury, Obs: 83%
[8]; XDE-729 TEA 8.8 g ae/ha alone
  % Visual Injury, Obs: 64%
[11]; 28 DAA, XDE-729 TEA 35 g ae/ha alone
  % Visual Injury, Obs: 10%
[14]; XDE-729 TEA 8.8 g ae/ha alone
  % Visual Injury, Obs: 64%

From US20130143739A1, “HERBICIDAL COMPOSITION CONTAINING 4-amino-3-chloro-6-(4-chloro-2-fluoro-3-methoxyphenyl) pyridine-2-carboxylic acid or derivative thereof AND FLUROXYPYR or derivatives thereof” (DOW AGROSCIENCES LLC, priority 2011, published 2013)
